Experimental data: the supplement of paper PMC6045584
± gives the standard deviation of the averaged measurements.

Key:
EVEROLIMUS = compound: CO[C@H]1C[C@@H]2CC[C@@H](C)[C@@](O)(O2)C(=O)C(=O)N2CCCC[C@H]2C(=O)O[C@H]([C@H](C)C[C@@H]2CC[C@@H](OCCO)[C@H](OC)C2)CC(=O)[C@H](C)/C=C(\C)[C@@H](O)[C@@H](OC)C(=O)[C@H](C)C[C@H](C)/C=C/C=C/C=C/1C [EVEROLIMUS]; experiment: surviving fraction relative to DMSO-only wells; higher = less growth inhibition; settings: exposure time: 5 days
How it was run: (§1)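 Surviving fraction was calculated by normalising CellTiter-Glo luminescence to the median of DMSO-only wells. Tumour cell lines in log phase were seeded in 384-well plates at 250–500 cells per well, and 24 hours later were exposed continuously for five days to inhibitors at 0.5, 1, 5, 10, 50, 100, 500 and 1000 nM.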

ETOPOSIDE = compound: COc1cc([C@@H]2c3cc4c(cc3[C@@H](O[C@@H]3O[C@@H]5CO[C@@H](C)O[C@H]5[C@H](O)[C@H]3O)[C@H]3COC(=O)[C@H]23)OCO4)cc(OC)c1O [ETOPOSIDE]; experiment: as above; settings: exposure time: 5 days
How it was run: as §1

Test System | surviving fraction (EVEROLIMUS; 0.5 nM) | surviving fraction (EVEROLIMUS; 1 nM) | surviving fraction (EVEROLIMUS; 5 nM) | surviving fraction (EVEROLIMUS; 10 nM) | surviving fraction (EVEROLIMUS; 50 nM) | surviving fraction (EVEROLIMUS; 100 nM) | surviving fraction (EVEROLIMUS; 500 nM) | surviving fraction (EVEROLIMUS; 1000 nM) | surviving fraction (ETOPOSIDE; 0.5 nM) | surviving fraction (ETOPOSIDE; 1 nM) | surviving fraction (ETOPOSIDE; 5 nM) | surviving fraction (ETOPOSIDE; 10 nM) | surviving fraction (ETOPOSIDE; 50 nM) | surviving fraction (ETOPOSIDE; 100 nM) | surviving fraction (ETOPOSIDE; 500 nM) | surviving fraction (ETOPOSIDE; 1000 nM)
JIMT1 BREAST | 0.752 ± 0.021 | 0.663 ± 0.014 | 0.571 ± 0.034 | 0.561 ± 0.022 | 0.56 ± 0.034 | 0.55 ± 0.03 | 0.5 ± 0.016 | 0.494 ± 0.036 | 0.988 ± 0.02 | 1.01 ± 0.026 | 1.03 ± 0.032 | 1.03 ± 0.015 | 1.06 ± 0.022 | 1.07 ± 0.026 | 0.893 ± 0.028 | 0.694 ± 0.028
JURKAT HAEMATOPOIETIC AND LYMPHOID TISSUE | 0.988 ± 0.023 | 0.917 ± 0.041 | 0.572 ± 0.0079 | 0.557 ± 0.033 | 0.433 ± 0.029 | 0.396 ± 0.034 | 0.326 ± 0.021 | 0.275 ± 0.018 | 1.084 ± 0.0084 | 1.1 ± 0.023 | 1.052 ± 0.0055 | 1.011 ± 0.0045 | 0.633 ± 0.043 | 0.261 ± 0.01 | 0.064 ± 0.005 | 0.0413 ± 0.00058
KPD BONE | 0.603 ± 0.044 | 0.529 ± 0.026 | 0.457 ± 0.016 | 0.422 ± 0.019 | 0.408 ± 0.025 | 0.384 ± 0.017 | 0.343 ± 0.012 | 0.338 ± 0.02 | 0.955 ± 0.016 | 0.894 ± 0.047 | 1.02 ± 0.026 | 1.02 ± 0.1 | 0.944 ± 0.023 | 0.811 ± 0.047 | 0.393 ± 0.0087 | 0.292 ± 0.014
LM7 BONE | 0.934 ± 0.053 | 0.87 ± 0.056 | 0.803 ± 0.1 | 0.785 ± 0.12 | 0.77 ± 0.085 | 0.752 ± 0.046 | 0.674 ± 0.087 | 0.609 ± 0.044 | 0.9 ± 0.14 | 0.941 ± 0.072 | 1.01 ± 0.068 | 1.01 ± 0.13 | 0.994 ± 0.12 | 0.953 ± 0.075 | 0.677 ± 0.034 | 0.449 ± 0.045
MCF7 BREAST | 0.673 ± 0.049 | 0.597 ± 0.058 | 0.502 ± 0.046 | 0.495 ± 0.024 | 0.527 ± 0.011 | 0.505 ± 0.012 | 0.504 ± 0.021 | 0.514 ± 0.024 | 0.9 ± 0.049 | 0.88 ± 0.045 | 0.867 ± 0.079 | 0.9 ± 0.037 | 0.951 ± 0.07 | 0.935 ± 0.014 | 0.702 ± 0.051 | 0.644 ± 0.041
MDAMB134 BREAST | 0.843 | 0.789 ± 0.071 | 0.63 ± 0.069 | 0.642 ± 0.11 | 0.616 ± 0.1 | 0.688 ± 0.11 | 0.569 ± 0.11 | 0.573 ± 0.09 | 1.08 ± 0.13 | 1.187 ± 0.0057 | 0.994 ± 0.13 | 0.992 ± 0.099 | 1.03 ± 0.19 | 1.12 ± 0.17 | 1.11 ± 0.065 | 1.02 ± 0.055
MDAMB157 BREAST | 0.696 ± 0.11 | 0.817 ± 0.043 | 0.747 ± 0.05 | 0.692 ± 0.011 | 0.634 ± 0.05 | 0.712 ± 0.052 | 0.598 ± 0.041 | 0.572 ± 0.095 | 0.927 ± 0.12 | 0.938 ± 0.044 | 1.07 ± 0.044 | 0.99 ± 0.055 | 0.895 ± 0.038 | 0.874 ± 0.1 | 0.201 ± 0.046 | 0.221 ± 0.053
MDAMB231 BREAST | 0.779 ± 0.021 | 0.73 ± 0.028 | 0.621 ± 0.029 | 0.5901 ± 0.005 | 0.591 ± 0.022 | 0.575 ± 0.019 | 0.541 ± 0.038 | 0.521 ± 0.038 | 0.987 ± 0.022 | 1.03 ± 0.056 | 1.02 ± 0.018 | 0.995 ± 0.018 | 1.04 ± 0.029 | 1.03 ± 0.036 | 0.633 ± 0.017 | 0.454 ± 0.043
MDAMB361 BREAST | 0.739 ± 0.061 | 0.815 ± 0.098 | 0.697 ± 0.0076 | 0.631 ± 0.049 | 0.62 ± 0.028 | 0.584 ± 0.0067 | 0.547 ± 0.015 | 0.543 ± 0.039 | 0.921 ± 0.048 | 0.848 ± 0.056 | 0.884 ± 0.055 | 0.946 ± 0.068 | 0.958 ± 0.067 | 0.963 ± 0.091 | 0.954 ± 0.051 | 0.972 ± 0.049
MDAMB436 BREAST | 0.7 ± 0.022 | 0.655 ± 0.044 | 0.598 ± 0.027 | 0.606 ± 0.039 | 0.577 ± 0.025 | 0.589 ± 0.046 | 0.633 ± 0.057 | 0.558 ± 0.061 | 0.957 ± 0.038 | 1 ± 0.053 | 1.05 ± 0.079 | 0.943 ± 0.022 | 0.873 ± 0.11 | 0.822 ± 0.045 | 0.499 ± 0.02 | 0.416 ± 0.059
MDAMB453 BREAST | 0.941 ± 0.11 | 0.75 ± 0.07 | 0.461 ± 0.0079 | 0.369 ± 0.037 | 0.339 ± 0.035 | 0.305 ± 0.018 | 0.301 ± 0.024 | 0.284 ± 0.011 | 1.07 ± 0.098 | 1.13 ± 0.14 | 1.13 ± 0.057 | 1.13 ± 0.07 | 1.16 ± 0.046 | 1.15 ± 0.076 | 1.14 ± 0.12 | 0.984 ± 0.078
MDAMB468 BREAST | 0.759 ± 0.076 | 0.669 ± 0.043 | 0.599 ± 0.031 | 0.546 ± 0.045 | 0.55 ± 0.017 | 0.601 ± 0.0052 | 0.551 ± 0.044 | 0.522 ± 0.066 | 1.1 ± 0.11 | 1.06 ± 0.013 | 1.14 ± 0.065 | 1.13 ± 0.038 | 1.15 ± 0.12 | 1.25 ± 0.089 | 1.09 ± 0.072 | 0.937 ± 0.19
MFM223 BREAST | 0.953 ± 0.069 | 0.912 ± 0.077 | 0.73 ± 0.049 | 0.749 ± 0.082 | 0.669 ± 0.053 | 0.638 ± 0.068 | 0.706 ± 0.076 | 0.754 ± 0.053 | 1.1 ± 0.056 | 1.19 ± 0.14 | 1.17 ± 0.12 | 1.07 ± 0.038 | 1.12 ± 0.035 | 1.06 ± 0.035 | 0.721 ± 0.032 | 0.729 ± 0.052
MG63 BONE | 0.954 ± 0.019 | 0.8723 ± 0.0081 | 0.747 ± 0.027 | 0.6393 ± 0.0057 | 0.594 ± 0.026 | 0.57 ± 0.02 | 0.481 ± 0.021 | 0.4813 ± 0.0035 | 1.01 ± 0.033 | 0.998 ± 0.038 | 1.05 ± 0.059 | 1.06 ± 0.036 | 1.06 ± 0.052 | 1.05 ± 0.066 | 0.778 ± 0.043 | 0.265 ± 0.016
MHM BONE | 0.926 ± 0.063 | 0.864 ± 0.049 | 0.743 ± 0.057 | 0.696 ± 0.059 | 0.664 ± 0.029 | 0.672 ± 0.019 | 0.63 ± 0.011 | 0.638 ± 0.032 | 0.994 ± 0.022 | 0.999 ± 0.011 | 1.01 ± 0.021 | 1.001 ± 0.007 | 1.02 ± 0.016 | 1.02 ± 0.045 | 0.894 ± 0.018 | 0.784 ± 0.024
NCIH441 LUNG | 1.15 ± 0.031 | 1.08 ± 0.098 | 1.183 ± 0.0021 | 1.04 ± 0.049 | 0.864 ± 0.097 | 1.03 ± 0.082 | 0.933 ± 0.056 | 0.876 ± 0.076 | 1.03 ± 0.15 | 1.05 ± 0.037 | 1 ± 0.04 | 0.974 ± 0.011 | 1.01 ± 0.053 | 0.829 ± 0.05 | 0.565 ± 0.035 | 0.524 ± 0.016
